Test system: CcrM from Moraxella lincolnii
Assay: radiochemical DNA methylation assay
Assay type: biochemical, Lwoffella lincolnii
Settings: read-out: M. lincolnii IC50; DNA and AdoMet as substrates

- IC50: 45.8 ± 3.2 µM
Substance: NSC317003 [NSC 2]

Source: PMC12019475 (ACS Omega, 2025)
